PMC5954004, “19th European Symposium on Radiopharmacy and Radiopharmaceuticals (ESRR’18)” (EJNMMI Radiopharmacy and Chemistry, 2018)
Read-outs that look alike come from different tables or passages of the source. Each block holds one compound with its values, some of them ahead of it.

Columns and labels:
[1] = 68Ga-labelled conjugates
[2] = 68Ga-labelled conjugates; remark: listed apart in the source
[3] = tested on: Raji cells expressing CD20; assay: binding of 68Ga-Tz-conjugate after binding of Rtx-TCO to Raji cells; assay type: cell-based
[4] = 1h p.i., normal balb-c mice
[5] = 37°C, 24h incubation
Method: Methods: 177Lu-DOTATATE (Lutathera®) was diluted to 1/5th in saline, 5% Glucose, Bicarbonate 8.4% solution, Ringer-Lactate, octreotide solution, octreotide LAR or incubated at 37°C in plasma or plasma enriched with 10% de octreotide. Radiochemical purity (RPC) was determined by ITLC-SG in 0.1mol/L sodium citrate pH=3. […] RPC was also determined using C18 Sep-Pack-Plus cartridge (Waters, USA). The free radionuclide was eluted with 5mL of 0.1mol/L acetate buffer pH=3 and the labelled peptide with 5mL of methanol, and hydroxylated Lu-177 remained inside the cartridge. Mixtures were then analyzed immediately, 30min and 24h after dilution. […] Binary comparisons to the undiluted product were made by a Mann-and-Whitney U test and stability over time checked by a 1-way ANOVA (p < 5%).

mGluR1 = target: T1, mGluR1 (Mus musculus, UniProt P97772); assay: [11C]ITDM microPET in mouse brain; assay type: in vivo
T1 construct: PET probe for imaging the kinetics of mGluR1 in mouse brain; from tissue; host or cells: brain of living WT Q175DN mice
Method: Methods: We validated [^11C]ITDM as a PET probe for imaging the kinetics of mGluR1 in mouse brain. [^11C]ITDM was prepared by modification of a previously described method^1 in a module (Comecer Netherlands) adapted for automated production. In a cooled solution containing the arylstannane precursor (1.9mg), K2CO3 (2.1mg), CuCl2 (1.5mg), Pd2(dba)3 (1.3mg) and P(o-tol)3 (1.7mg) in DMF purged with N2, [^11C]MeI was bubbled, followed by reaction at 65°C for 5min. The mixture was purified by reverse phase semi-preparative HPLC (tR=8.5min), using MeCN:H2O:Et3N (6:4:0.01, V/V/V) as mobile phase (2.7mL/min) followed by sterile formulation into ethanolic saline containing 0.5% ascorbic acid, using a C18 Sep-Pak cartridge. For in vivo evaluation, WT Q175DN mice (n = 9; 11 months old) were intravenously (i.v.) injected with [^11C]ITDM (5.69±2.4MBq; injected mass=0.87±0.33μg/kg) and dynamically scanned for 90min (Siemens Inveon μPET/CT). To validate target engagement, blocking and displacement studies with mGluR1 antagonist YM-202074 (20mg/kg; i.v.; 2min before and 30min after tracer injection, respectively) were performed. Total volume of distribution (VT) (from 2TCM) was calculated noninvasively using an image-derived input function (IDIF) in several brain regions.

GABAB receptors = target: T2, GABAB receptors (Mus musculus, UniProt Q9WV18); assay type: in vivo, mice
T2 construct: from tissue; host or cells: brain of CD-1 male mice (in vivo / ex vivo)
Method: Methods: New GABAB agonists, fluoropyridylmethoxy analogues of baclofen, were synthesized. The in vitro potency of these new compounds was determined commercially. […] The regional brain distribution of the radiolabeled [^18F]1 was studied in CD-1 male mice.

in vivo = conditions: BALB/c nude, mouse, total radioactivity
Method: (§1) Methods: The new MG analogue DOTA-MGS5 was designed based on a combination of the substitutions applied in peptide derivatives previously developed by our group (1). The in vitro and in vivo characterisation after radiolabelling with In-111 and Lu-177 included stability analyses of the radioligands incubated in rat tissue homogenates and after injection into BALB/c mice. Receptor interaction in terms of receptor affinity and cell uptake was analysed using A431 human epidermoid carcinoma cells transfected with human CCK2R (A431-CCK2R) and mock-transfected cells (A431-mock). The targeting potential was evaluated by small animal dual modality single photon emission computed tomography (NanoSPECT/CT) as well as ex vivo biodistribution studies in tumour bearing BALB/c nude mice up to 4 h after injection.

A431-CCK2R cells = assay: internalisation into A431-CCK2R cells; assay type: cell-based, human
[6] = after 10 min, BALB/c mice in vivo
Method: as §1

[7] = plutonium decorporation in rats; assay type: in vivo; conditions: delayed administration, of the levels in untreated control rats
Method: Methods: Unilamellar liposomes (DSPC/Cholesterol/DSPE 69:30:1) were used to encapsulate DTPA (25mM). For decorporation experiments, rats were first contaminated by intravenous administration of the soluble citrate form of ^238Pu (4 to 10.3 kBq), before injection of DTPA, marketed free form or encapsulated in liposomes (2.25 at 6.74 μmol/kg). Treatment schedules started at one hour (prompt treatment) or at seven days (delayed treatment) after contamination and were given as a single injection or repeated injections. A prophylactic single treatment was also tested given at three days before contamination. Organs of interest (liver, bone and spleen mainly) and excreta were collected at different times for measurement of Pu alpha activity.

[8] = target: gastrin-releasing peptide receptor (GRPr) (human (endogenous in PC-3, T47D, MDA-MB-231)) (UniProt P30550)
Capan-1 cells = assay: clonogenic survival assay, Capan-1; assay type: cell-based
Method: (§2) Methods: Flow cytometry: EGFR density was measured on AsPC-1, PANC-1, MiaPACA-2, and Capan-1 cell lines. Cells were incubated with panitumumab for 60 min, then with Alexa Fluor 647 anti-human IgG immunoconjugates for 30 min at 4°C, then run on a flow cytometer. Clonogenic survival assays: Cells were treated with γ-radiation (0-8Gy) or ^177Lu-RIT (0-3MBq/72nM) then seeded in into 6-well plates and allowed to grow at 37°C, 5% CO2, for 14 days. Then colonies were fixed/stained and counted. Subcellular fractionation: Cells were treated with ^177Lu-RIT (1MBq/72nM) for 1, 3, 4, and 24 hours. Radioactivity associated with cell surface, cytoplasm, and nucleus was separated then measured in a γ-counter.

PANC-1 cells = assay: clonogenic survival assay, PANC-1; assay type: cell-based
Method: as §2

MIAPaca-2 cells = assay: clonogenic survival assay, MIAPaca-2; assay type: cell-based
Method: as §2

AsPC-1 cells = assay: clonogenic survival assay, AsPC-1; assay type: cell-based
Method: as §2

[9] = plasma enriched with octreotide
[10] = 2TCM, image-derived input function, WT Q175DN mice n = 9

T1 sequence (P97772 21-1199): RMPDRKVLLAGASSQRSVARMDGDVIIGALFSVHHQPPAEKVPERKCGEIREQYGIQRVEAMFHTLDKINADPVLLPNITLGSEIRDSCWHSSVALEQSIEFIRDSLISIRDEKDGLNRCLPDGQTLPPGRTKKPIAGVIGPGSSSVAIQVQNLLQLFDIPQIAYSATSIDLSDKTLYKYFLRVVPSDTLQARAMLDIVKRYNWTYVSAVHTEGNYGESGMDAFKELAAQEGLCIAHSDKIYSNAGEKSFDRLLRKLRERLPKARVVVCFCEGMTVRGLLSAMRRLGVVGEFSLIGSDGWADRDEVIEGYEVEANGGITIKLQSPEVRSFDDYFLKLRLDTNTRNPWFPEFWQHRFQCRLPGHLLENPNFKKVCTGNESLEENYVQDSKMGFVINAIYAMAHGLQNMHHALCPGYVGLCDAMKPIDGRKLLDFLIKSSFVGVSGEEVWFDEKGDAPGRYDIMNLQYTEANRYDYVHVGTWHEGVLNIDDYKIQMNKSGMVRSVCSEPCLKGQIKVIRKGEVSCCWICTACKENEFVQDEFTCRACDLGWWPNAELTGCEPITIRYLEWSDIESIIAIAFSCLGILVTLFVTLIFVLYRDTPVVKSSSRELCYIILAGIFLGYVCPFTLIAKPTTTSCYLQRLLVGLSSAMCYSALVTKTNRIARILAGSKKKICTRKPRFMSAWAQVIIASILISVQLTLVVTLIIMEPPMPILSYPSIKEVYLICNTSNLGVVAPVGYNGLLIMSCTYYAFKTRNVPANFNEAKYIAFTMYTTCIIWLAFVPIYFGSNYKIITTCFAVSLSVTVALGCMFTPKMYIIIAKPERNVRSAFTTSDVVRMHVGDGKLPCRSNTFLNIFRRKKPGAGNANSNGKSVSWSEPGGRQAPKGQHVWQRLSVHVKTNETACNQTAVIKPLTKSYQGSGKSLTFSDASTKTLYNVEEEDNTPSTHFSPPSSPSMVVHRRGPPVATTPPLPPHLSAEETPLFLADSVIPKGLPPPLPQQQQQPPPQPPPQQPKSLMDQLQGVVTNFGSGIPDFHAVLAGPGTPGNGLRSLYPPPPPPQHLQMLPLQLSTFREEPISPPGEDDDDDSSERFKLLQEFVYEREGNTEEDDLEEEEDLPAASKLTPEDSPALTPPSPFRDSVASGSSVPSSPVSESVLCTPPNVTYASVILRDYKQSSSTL
Chain of gastrin-releasing peptide receptor (GRPr) (human (endogenous in PC-3, T47D, MDA-MB-231)) (P30550 whole entry, stated change not applied): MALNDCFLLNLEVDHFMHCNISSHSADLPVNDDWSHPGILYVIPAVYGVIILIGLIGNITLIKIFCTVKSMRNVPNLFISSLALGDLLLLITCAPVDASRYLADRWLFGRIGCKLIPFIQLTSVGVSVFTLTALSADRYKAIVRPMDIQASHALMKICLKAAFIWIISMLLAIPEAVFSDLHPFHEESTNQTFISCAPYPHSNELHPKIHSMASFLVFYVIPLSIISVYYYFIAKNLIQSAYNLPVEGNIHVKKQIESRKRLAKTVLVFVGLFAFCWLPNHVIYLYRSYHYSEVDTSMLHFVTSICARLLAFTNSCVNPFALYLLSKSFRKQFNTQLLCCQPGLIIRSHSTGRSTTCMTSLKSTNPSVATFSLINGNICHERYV
T2 sequence (Q9WV18 20-960): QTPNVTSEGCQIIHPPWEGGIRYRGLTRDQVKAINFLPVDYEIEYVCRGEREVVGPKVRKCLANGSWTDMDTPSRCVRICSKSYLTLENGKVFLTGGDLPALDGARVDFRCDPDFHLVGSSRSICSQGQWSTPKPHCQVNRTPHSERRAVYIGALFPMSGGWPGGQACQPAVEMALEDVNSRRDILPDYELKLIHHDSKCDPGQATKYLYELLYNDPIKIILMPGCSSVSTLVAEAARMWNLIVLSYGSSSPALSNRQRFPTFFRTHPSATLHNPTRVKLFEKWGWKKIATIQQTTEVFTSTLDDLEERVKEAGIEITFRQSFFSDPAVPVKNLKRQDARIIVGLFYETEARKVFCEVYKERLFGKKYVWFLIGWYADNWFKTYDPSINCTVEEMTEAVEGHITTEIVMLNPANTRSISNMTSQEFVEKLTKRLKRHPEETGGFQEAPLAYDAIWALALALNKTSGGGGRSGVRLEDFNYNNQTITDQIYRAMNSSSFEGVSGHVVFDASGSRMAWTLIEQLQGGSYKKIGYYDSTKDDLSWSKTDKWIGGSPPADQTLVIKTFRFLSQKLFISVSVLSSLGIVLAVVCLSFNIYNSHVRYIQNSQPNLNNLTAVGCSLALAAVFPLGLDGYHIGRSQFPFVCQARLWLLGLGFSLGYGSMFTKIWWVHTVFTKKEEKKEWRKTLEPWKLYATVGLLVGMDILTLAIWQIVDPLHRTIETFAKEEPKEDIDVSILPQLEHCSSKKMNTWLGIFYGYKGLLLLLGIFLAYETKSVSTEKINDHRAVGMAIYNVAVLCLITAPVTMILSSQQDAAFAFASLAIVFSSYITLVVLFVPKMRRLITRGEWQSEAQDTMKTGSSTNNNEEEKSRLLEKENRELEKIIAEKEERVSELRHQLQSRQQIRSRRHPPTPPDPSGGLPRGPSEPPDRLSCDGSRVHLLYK
T2 sequence (Q80T41 41-940 partner): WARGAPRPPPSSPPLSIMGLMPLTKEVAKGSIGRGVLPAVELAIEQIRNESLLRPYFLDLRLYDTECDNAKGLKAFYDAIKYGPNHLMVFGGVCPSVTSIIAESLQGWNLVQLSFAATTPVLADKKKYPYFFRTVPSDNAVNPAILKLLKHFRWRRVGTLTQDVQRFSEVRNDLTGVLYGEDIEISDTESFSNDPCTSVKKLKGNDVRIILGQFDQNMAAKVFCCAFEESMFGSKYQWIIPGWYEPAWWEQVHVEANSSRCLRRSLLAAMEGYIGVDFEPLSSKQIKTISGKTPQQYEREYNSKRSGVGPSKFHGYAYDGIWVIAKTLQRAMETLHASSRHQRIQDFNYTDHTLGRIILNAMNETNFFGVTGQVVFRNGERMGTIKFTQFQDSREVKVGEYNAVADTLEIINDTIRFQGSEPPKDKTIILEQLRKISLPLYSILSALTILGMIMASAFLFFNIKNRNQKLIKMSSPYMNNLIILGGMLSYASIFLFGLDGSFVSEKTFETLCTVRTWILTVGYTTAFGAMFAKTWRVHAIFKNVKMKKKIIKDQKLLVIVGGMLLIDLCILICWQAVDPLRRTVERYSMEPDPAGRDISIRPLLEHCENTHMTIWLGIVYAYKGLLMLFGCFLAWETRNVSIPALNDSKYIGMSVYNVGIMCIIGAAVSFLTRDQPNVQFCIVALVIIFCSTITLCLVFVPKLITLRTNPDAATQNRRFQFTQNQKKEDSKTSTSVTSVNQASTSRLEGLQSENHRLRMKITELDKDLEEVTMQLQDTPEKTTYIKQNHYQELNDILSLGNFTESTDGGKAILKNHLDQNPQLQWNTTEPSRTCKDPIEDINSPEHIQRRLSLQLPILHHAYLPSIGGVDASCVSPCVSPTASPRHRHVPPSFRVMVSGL

Compound: CC(=O)NC1CCCN(O)C(=O)/C=C(/C)CCOC(=O)C(NC(=O)CCOCCOCCOCCOCCOCCC(=O)NCc2ccc(-c3nncnn3)cc2)CCCN(O)C(=O)/C=C(/C)CCOC(=O)C(NC(C)=O)CCCN(O)C(=O)/C=C(/C)CCOC1=O (stereo not drawn) (68Ga complex, metal not drawn) [DAFC-(PEG5Tz)]
protein binding [1]: exceeded 50% | log p [2]: below -1 | binding after binding of Rtx-TCO to CD20 expressing cells [3]: 4.01 ± 0.24% | blood levels [4]: 1 %ID/g

Compound: C/C1=C/C(=O)N(O)CCCC(NC(=O)CCOCCOCCOCCOCCOCCC(=O)NCc2ccc(-c3nncnn3)cc2)C(=O)OCC/C(C)=C\C(=O)N(O)CCCC(NC(=O)CCOCCOCCOCCOCCOCCC(=O)NCc2ccc(-c3nncnn3)cc2)C(=O)OCC/C(C)=C\C(=O)N(O)CCCC(NC(=O)CCOCCOCCOCCOCCOCCC(=O)NCc2ccc(-c3nncnn3)cc2)C(=O)OCC1 (stereo not drawn) (68Ga complex, metal not drawn) [FSC-(PEG5Tz)3]
protein binding [1]: exceeded 50% | log p [2]: below -1 | binding after binding of Rtx-TCO to CD20 expressing cells [3]: 15.9 ± 0.88% | blood levels [4]: 3 %ID/g

Compound: CC(=O)NC1CCCN(O)C(=O)/C=C(/C)CCOC(=O)C(NC(=O)CCOCCOCCOCCOCCOCCC(=O)NCc2ccc(-c3nncnn3)cc2)CCCN(O)C(=O)/C=C(/C)CCOC(=O)C(NC(=O)CCOCCOCCOCCOCCOCCC(=O)NCc2ccc(-c3nncnn3)cc2)CCCN(O)C(=O)/C=C(/C)CCOC1=O (stereo not drawn) (68Ga complex, metal not drawn) [MAFC-(PEG5Tz)2]
protein binding [1]: exceeded 50% | log p [2]: below -1 | binding after binding of Rtx-TCO to CD20 expressing cells [3]: 7.75 ± 0.56%

Compound: C[C@@H](O)[C@H](NC(=O)[C@@H]1CSSC[C@H](NC(=O)[C@@H](Cc2ccccc2)NC(=O)CN2CCN(CC(=O)O)CCN(CC(=O)O)CCN(CC(=O)O)CC2)C(=O)N[C@@H](Cc2ccc(O)cc2)C(=O)N[C@H](Cc2c[nH]c3ccccc23)C(=O)N[C@@H](CCCCN)C(=O)N[C@@H]([C@@H](C)O)C(=O)N1)C(=O)O [177Lu-DOTATATE, metal not drawn]
hydroxylated Lutetium [5, 9]: 6.3%±1.8% | unbound lutetium [5, 9]: 4.8%±0.8% | hydroxylated Lutetium ([5]; plasma, mean±SD n = 3-4): 4.9%±1.3% | unbound lutetium ([5]; plasma, mean±SD n = 3-4): 4.2%±0.6%

Compound: COCCN(C)Cc1ccc2c(c1)nc1sc(C(=O)N(C)C3CCCCC3)cn12 [YM-202074]
blockade and displacement of [11C]ITDM (mGluR1; 20mg/kg i.v., 2min before and 30min after tracer injection, all investigated brain regions): significant blockade and displacement

Compound: CC(C)Nc1cc(-c2csc(N(C)C(=O)c3ccc([11CH3])cc3)n2)ncn1 [[^11C]ITDM]
VT cerebellum (mGluR1; [10]): 9.1±2.1 mL/cm^3 | VT thalamus (mGluR1; [10]): 8.2±2.1 mL/cm^3

Compound: NC[C@H](CC(=O)O)c1ccc(Cl)c(OCc2ccnc(F)c2)c1 [[^18F]1, (R)-4-amino-3-(4-chloro-3-((2-fluoropyridin-4-yl)methoxy)phenyl) butanoic acid]
mouse brain uptake (GABAB receptors; CD-1 male mice): 1 % ID/g tissue | inhibition of accumulation in the mouse brain (GABAB receptors; pre-injection of a selective GABAB agonist): 35%

Compound: CCCC[C@@H](C(=O)N[C@@H](CC(=O)O)C(=O)N[C@@H](Cc1cccc2ccccc12)C(N)=O)N(C)C(=O)[C@H](Cc1c[nH]c2ccccc12)NC(=O)CNC(=O)[C@H](Cc1ccc(O)cc1)NC(=O)[C@H](C)NC(=O)[C@@H](CCC(=O)O)NC(=O)CN1CCN(CC(=O)O)CCN(CC(=O)O)CCN(CC(=O)O)CC1 [^111In-DOTA-MGS5, metal not drawn]
tissue uptake at 4 h (in vivo; A431-CCK2R tumour, tumour uptake, 4 h p.i.): 23.5 ± 1.3 %ID/g | internalisation into A431-CCK2R cells (A431-CCK2R cells; after 1 h): > 40% | internalisation into A431-CCK2R cells (A431-CCK2R cells; after 4 h): > 80% | stability in blood, intact peptide [6]: > 80%

Compound: CCCC[C@@H](C(=O)N[C@@H](CC(=O)O)C(=O)N[C@@H](Cc1cccc2ccccc12)C(N)=O)N(C)C(=O)[C@H](Cc1c[nH]c2ccccc12)NC(=O)CNC(=O)[C@H](Cc1ccc(O)cc1)NC(=O)[C@H](C)NC(=O)[C@@H](CCC(=O)O)NC(=O)CN1CCN(CC(=O)O)CCN(CC(=O)O)CCN(CC(=O)O)CC1 [^177Lu-DOTA-MGS5, metal not drawn]
tissue to tissue ratio at 4 h (in vivo; A431-CCK2R tumour / kidneys): > 6 | tissue to tissue ratio at 4 h (in vivo; A431-CCK2R tumour / stomach): > 3 | stability in blood, intact peptide [6]: > 80%

Compound: O=C(O)CN(CCN(CC(=O)O)CC(=O)O)CCN(CC(=O)O)CC(=O)O [free DTPA]
decrease of hepatic Pu level [7]: 19% | decrease of skeletal Pu level [7]: 12% | decrease of splenic Pu level [7]: 24%

cell bound, % given radioactivity (MDA-MB-231+ cells, 1 h) (% given radioactivity) [8]: 3 | cell bound, % given radioactivity (PC-3+ cells, 1 h) (% given radioactivity) [8]: 30 | cell bound, % given radioactivity (T47D+ cells, 1 h) (% given radioactivity) [8]: 9
Compound: GRPr antagonist H2N-4-amino-1-carboxymethyl piperidine-[(R)-Phe^6, Sta^13]BN(6-14) linked to the chelator HBED-CC, labelled with 68Ga (peptide)

Compound: ^177Lu-RIT: panitumumab modified with a NOTA chelator and radiolabeled with 177Lu
D10 (clonogenic survival reduced to 10%) (Capan-1 cells; Capan-1): 1 MBq | RBE (Capan-1 cells; Capan-1, compared to γ-radiation): 0.3 | D10 after 177Lu-RIT (Capan-1 cells; Capan-1, microdosimetry): 8.2 Gy | D10 (clonogenic survival reduced to 10%) (PANC-1 cells; PANC-1): 1.1 MBq | RBE (PANC-1 cells; PANC-1, compared to γ-radiation): 1.0 | D10 after 177Lu-RIT (PANC-1 cells; PANC-1, microdosimetry): 5.7 Gy | D10 (clonogenic survival reduced to 10%) (MIAPaca-2 cells; MIAPaca-2): 6.0 MBq | RBE (MIAPaca-2 cells; MIAPaca-2, compared to γ-radiation): 0.2 | D10 after 177Lu-RIT (MIAPaca-2 cells; MIAPaca-2, microdosimetry): 23.3 Gy | D10 (clonogenic survival reduced to 10%) (AsPC-1 cells; AsPc-1): 3.1 MBq | RBE (AsPC-1 cells; AsPc-1, compared to γ-radiation): 0.2 | D10 after 177Lu-RIT (AsPC-1 cells; AsPc-1, microdosimetry): 16.9 Gy
